Patent publication US20180106727A1, “ULTRA-HIGH-SENSITIVE ASSAY OF PROTEIN AND NUCLEIC ACID AND KIT, AND NOVEL ENZYME SUBSTRATE” (priority 2011, published 2018)
Where two headings read alike, the source gives them in different places.

Legend:
[1] = tested on: 3α-hydroxysteroid dehydrogenase; assay: Rotation numbers of thio-NAD cycling reactions with 3α-hydroxyandrostanes; type: biochemical
Experimental: The cycling system using thio-NAD(P) in the enzymatic cycling system is a unique cycling system that appeared relatively recently. With this system, the cycling is performed that is, thio-NAD(P)/thio-NAD(P)H using dehydrogenase (DH) with NAD(P)/NAD(P)H as a co-enzyme under conditions of coexistence of NAD(P)/NAD(P)H and its analog, and the amplification and the quantification are performed with thio-NAD(P)H (maximum absorption wavelength: 400 nm, molar absorption coefficient=11,900) as a substrate of dehydrogenase. The principle for measurement of the thio-NAD(P)cycling system is as described below.

β-galactosidase = β-galactosidase (Escherichia coli, UniProt P00722); conditions: β-Gal assay
Experimental: 0.1 M pyrophosphate buffer solution (pH 9.0); 1.2 mM thio-NAD; 3.6 mM NADH; 40 U/mL 3α-hydroxysteroid dehydrogenase
To a flat-bottomed microplate well, 25 μL of a phosphate buffer solution (pH 7.3) containing the standard substance (β-galactosidase) in a range of 0 to 200 pg/ml was added, and subsequently, 25 μL of Reaction Test Solution A was added to the well, respectively. The reaction solution was mixed, and the microplate was incubated at 37° C. for 60 minutes. Then, 50 μL of Reaction Test Solution B was added to each well, respectively, and the absorbance was measured for 30 minutes using a 405 nm filter with a microplate reader (MTP-500 manufactured by CORONA CORPORATION) while warming the microplate to 37° C. The amount of the absorbance change for 30 minutes was plotted with respect to the concentrations of the standard substance.
To a flat-bottomed microplate well, 50 μL of a phosphate buffer solution (pH 7.7) containing the standard substance (β-galactosidase) in a range of 0 to 250 pg/ml was added, and subsequently, 50 μL of Reaction Test Solution was added to each well, respectively. The absorbance was measured for 120 minutes using a 405 nm filter with a microplate reader (MTP-500 manufactured by CORONA CORPORATION) while warming the microplate to 37° C. The amount of the absorbance change for 120 minutes was plotted with respect to the concentrations of the standard substance.
0.1 M pyrophosphate buffer solution (pH 9.0); 4.8 mM thio-NAD; 0.4 mM NADH; 40 U/mL 3α-hydroxysteroid dehydrogenase
To a flat-bottomed microplate well, 25 μL of a phosphate buffer solution (pH 7.5) containing the standard substance (β-galactosidase) in a range of 0 to 200 pg/mL was added, and subsequently, 25 μL of Reaction Test Solution A was added to the well, respectively. The reaction solution was mixed, and the microplate was incubated at 37° C. for 60 minutes. Then, 50 μL of Reaction Test Solution B was added to each well, respectively, and the absorbance was measured for 30 minutes using a 405 nm filter with a microplate reader (MTP-500 manufactured by CORONA CORPORATION) while warming the microplate to 37° C. The amount of the absorbance change for 30 minutes was plotted with respect to the concentrations of the standard substance.
0.1 M pyrophosphate buffer solution (pH 9.8); 1.2 mM thio-NAD; 1 mM NADH; 40 U/mL 3α-hydroxysteroid dehydrogenase
To a flat-bottomed microplate well, 25 μL of a phosphate buffer solution (pH 7.5) containing the standard substance (β-galactosidase) in a range of 0 to 200 pg/mL was added, and subsequently, 25 μL of Reaction Test Solution A was added to the well, respectively. The reaction solution was mixed, and the microplate was incubated at 37° C. for 60 minutes.

[2] = tested on: 3α-hydroxysteroid dehydrogenase; assay: Dehydrogenation reaction of androsterone, reaction rate with thio-NAD versus NAD as co-enzyme; type: biochemical
From the text: The substrate for the cycling is preferably those having fast enzyme reaction rate (having high activity for the substrate) and reacting even at a low concentration (having low Km value). In addition, a desirable property as the dehydrogenase is the reaction rate when using thio-NAD(P) as a co-enzyme. In the dehydrogenation reaction of androsterone by other many dehydrogenases, the reaction rate when thio-NAD is used as a co-enzyme is within several % of the reaction rate when NAD is used, while with 3α-hydroxysteroid dehydrogenase, the reaction rate with thio-NAD is about 59% of the reaction rate with NAD. Thus, 3α-hydroxysteroid dehydrogenase has a desirable property as the cycling enzyme of the present invention. Furthermore, widely used alkaline phosphatase (ALP) can be used as the labeling enzyme to be combined, and the combination with alkaline phosphatase is preferable also in a point of easy synthesis of a phosphate ester of an androsterone derivative at the position 3 that is a substrate of alkaline phosphatase.

[3] = relative to 5α-Androsterone = 100
[4] = thio-NAD cycling, compound as substrate
[5] = conventional substrate, no cycling method printed

Sequence of β-galactosidase (P00722 2-1024): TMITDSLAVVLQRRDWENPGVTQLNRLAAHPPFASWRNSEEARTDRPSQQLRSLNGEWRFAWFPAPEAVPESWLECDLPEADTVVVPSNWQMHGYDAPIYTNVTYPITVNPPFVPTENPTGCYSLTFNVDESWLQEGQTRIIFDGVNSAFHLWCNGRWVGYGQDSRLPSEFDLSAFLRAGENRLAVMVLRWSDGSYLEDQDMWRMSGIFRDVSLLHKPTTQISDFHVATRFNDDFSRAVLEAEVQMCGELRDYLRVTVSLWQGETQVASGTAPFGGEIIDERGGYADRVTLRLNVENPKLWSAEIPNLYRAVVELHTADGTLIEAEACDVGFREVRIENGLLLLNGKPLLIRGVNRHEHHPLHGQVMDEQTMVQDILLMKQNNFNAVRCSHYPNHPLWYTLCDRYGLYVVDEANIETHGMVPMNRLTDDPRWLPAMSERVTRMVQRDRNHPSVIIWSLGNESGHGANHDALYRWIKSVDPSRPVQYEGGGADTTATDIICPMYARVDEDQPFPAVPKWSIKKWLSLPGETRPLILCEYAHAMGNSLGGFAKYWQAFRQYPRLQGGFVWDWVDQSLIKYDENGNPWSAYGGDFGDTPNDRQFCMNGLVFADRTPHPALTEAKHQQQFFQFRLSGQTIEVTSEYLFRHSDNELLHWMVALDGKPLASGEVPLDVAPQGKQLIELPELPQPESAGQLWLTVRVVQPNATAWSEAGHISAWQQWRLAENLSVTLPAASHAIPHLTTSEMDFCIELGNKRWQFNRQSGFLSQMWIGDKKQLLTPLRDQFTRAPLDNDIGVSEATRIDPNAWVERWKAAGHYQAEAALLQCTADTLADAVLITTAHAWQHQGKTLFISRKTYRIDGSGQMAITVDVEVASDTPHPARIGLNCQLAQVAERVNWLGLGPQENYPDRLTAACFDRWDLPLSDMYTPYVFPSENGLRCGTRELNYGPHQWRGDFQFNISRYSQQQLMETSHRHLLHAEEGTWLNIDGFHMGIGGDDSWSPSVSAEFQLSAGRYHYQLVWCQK

With `C[C@]12CC[C@@H](O)C[C@@H]1CC[C@@H]1[C@@H]2CC[C@]2(C)C(=O)CC[C@@H]12` [5α-Androsterone, reference compound] the “Rotation number, Relative value (%)” value [1] was 100%.

For `C[C@H](CCC(=O)NCC(=O)O)[C@H]1CC[C@H]2[C@@H]3[C@H](O)C[C@@H]4C[C@H](O)CC[C@]4(C)[C@H]3CC[C@]12C` [Glycochenodeoxycholate, Sodium glycochenodoxycholate, reference compound], the “Rotation number, Relative value (%)” value [1, 3] was 21% and the “Rotation number of cycling reaction” value [1, 4] was 129 Cycle/min.

In the case of `C=C1CC[C@H]2[C@@H]3CC[C@H]4C[C@H](O)CC[C@]4(C)[C@H]3CC[C@]12C` [5α-17-CH2, 3α-Hydroxy-17-methylene-5α-Androstane], the “Rotation number, Relative value (%)” value [1, 3] is reported as 49% and the “Rotation number of cycling reaction” value [1, 4] is reported as 308 Cycle/min.

With `CO[C@H]1CC[C@H]2[C@@H]3CC[C@@H]4C[C@H](O)CC[C@]4(C)[C@H]3CC[C@]12C` [5β-17β-OCH3] the “Rotation number, Relative value (%)” value [1, 3] was 74% and the “Rotation number of cycling reaction” value [1, 4] was 458 Cycle/min.

For `C[C@@]12CCC[C@H]1[C@@H]1CC[C@H]3C[C@H](O)CC[C@]3(C)[C@H]1CC2` [5α-17-deoxo, 3α-Hydroxy-5α-Androstane], the “Rotation number, Relative value (%)” value [1, 3] was 39% and the “Rotation number of cycling reaction” value [1, 4] was 241 Cycle/min.

`O=[N+]([O-])c1ccccc1O[C@@H]1O[C@H](CO)[C@H](O)[C@H](O)[C@H]1O` [ONPG, o-Nitrophenyl β-D-Galactopyranoside, reference compound] gave a Detection limit (β-galactosidase; [5]) of 4.5e-17 mol and a Quantification limit (β-galactosidase; [5]) of 1.5e-16 mol.

For `C[C@]12CCC(=O)C[C@@H]1CC[C@@H]1[C@@H]2CC[C@]2(C)[C@@H](O)CC[C@@H]12` [5α-DHT, 5α-Dihydrotestosterone, reference compound], the “Rotation number of cycling reaction” value [1] was 535 Cycle/min and the “Rotation number, Relative value (%)” value [1] was 86%.

Work on `Cc1cc(=O)oc2cc(O[C@@H]3O[C@H](CO)[C@H](O)[C@H](O)[C@H]3O)ccc12` [4-MUG, reference compound] yielded a Detection limit (β-galactosidase; [5]) of 9.76e-18 mol and a Quantification limit (β-galactosidase; [5]) of 3.25e-17 mol.

`C[C@]12CC[C@@H](O[C@@H]3O[C@H](CO)[C@H](O)[C@H](O)[C@H]3O)C[C@@H]1CC[C@@H]1[C@@H]2CC[C@]2(C)C(=O)CC[C@@H]12` [5α-AG, 5α-androsterone 3-β-galactoside] was tested, and the Detection limit (β-galactosidase; Two-steps) was 3.89e-19 mol and the Quantification limit (β-galactosidase; Two-steps) was 1.3e-18 mol.

`C[C@]12CC[C@@H](OP(=O)(O)O)C[C@@H]1CC[C@@H]1[C@@H]2CC[C@]2(C)C(=O)CC[C@@H]12` [androsterone 3-phosphate, reference compound] was tested, and the “Effect of the substrate on the cycling reaction” value [1] was “inhibition of the substrate on the cycling reaction”.

`CO[C@H]1CC[C@H]2[C@@H]3CC[C@@H]4C[C@H](O[C@@H]5O[C@H](CO)[C@H](O)[C@H](O)[C@H]5O)CC[C@]4(C)[C@H]3CC[C@]12C` [17-OMe 5β-AG] was tested, and the Detection limit (β-galactosidase; One-step) was 3.21e-19 mol, the Quantification limit (β-galactosidase; One-step) was 1.07e-18 mol and the Detection limit (β-galactosidase; Two-steps) was 1.09e-19 mol. For the same compound, the Quantification limit (β-galactosidase; Two-steps) was 3.64e-19 mol.

`C[C@]12CC[C@@H](O[C@@H]3O[C@H](CO)[C@H](O)[C@H](O)[C@H]3O)C[C@H]1CC[C@@H]1[C@@H]2CC[C@]2(C)C(=O)CC[C@@H]12` [5β-AG, 5β-Androsterone-3β-D-Galactoside] gave a Detection limit (β-galactosidase; One-step) of 3.31e-19 mol, a Quantification limit (β-galactosidase; One-step) of 1.1e-18 mol and a Detection limit (β-galactosidase; Two-steps) of 7.48e-20 mol. The Quantification limit (β-galactosidase; Two-steps) was 2.49e-19 mol.

In the case of `NC(=S)c1ccc[n+]([C@@H]2O[C@H](COP(=O)([O-])OP(=O)(O)OC[C@H]3O[C@@H](n4cnc5c(N)ncnc54)[C@H](O)[C@@H]3O)[C@@H](O)[C@H]2O)c1` [thio-NAD], the “Reaction rate with thio-NAD relative to the reaction rate with NAD” value [2] is reported as “about 59%”.

With `C[C@H]1CC[C@H]2[C@@H]3CC[C@@H]4C[C@H](O)CC[C@]4(C)[C@H]3CC[C@]12C` [5β-17-CH3, 3α-Hydroxy-17β-methyl-5β-Androstane] the “Rotation number, Relative value (%)” value [1, 3] was 18% and the “Rotation number of cycling reaction” value [1, 4] was 114 Cycle/min.

`C[C@]12CC[C@@H](O)C[C@H]1CC[C@@H]1[C@@H]2CC[C@]2(C)C(=O)CC[C@@H]12` [5β-Androsterone, reference compound] was tested, and the “Rotation number of cycling reaction” value [1] was 384 Cycle/min and the “Rotation number, Relative value (%)” value [1] was 62%.

With `C[C@H]1CC[C@H]2[C@@H]3CC[C@H]4C[C@H](O)CC[C@]4(C)[C@H]3CC[C@]12C` [5α-17-CH3, 3α-Hydroxy-17β-methyl-5α-Androstane] the “Rotation number, Relative value (%)” value [1, 3] was 32% and the “Rotation number of cycling reaction” value [1, 4] was 200 Cycle/min.
